# According to publication PMC4556614 (PLoS ONE, 2015):
# Key:
# OCT2 [1] = biological target: T1, OCT2 (Homo sapiens, UniProt O15244); test: in vitro; details: for IC50 values, OCT2-mediated metformin transport (in words): potent inhibitors, confirmed previous findings [19]-[21]
# OCT2 [2] = biological target: T1, OCT2; test: Inhibition of OCT2-mediated [3H]MPP+ uptake in HEK-OCT2 cells
# OCT2 [3] = system: OCT2; set-up: method as in earlier work; details: drug 20 μM; HEK 293 cells overexpressing OCT2; ref 7 (Kido et al.); cited from earlier work
# [4] = ref 16 (Regenthal et al.), cited from earlier work; for Cmax,u: Cmax of unbound drug in humans; for Cmax: maximum steady-state plasma concentration in humans
# [5] = cited from earlier work
# [6] = test drug 20 µM, MPP+ 50 μM, 3 min, net uptake HEK-OCT2 minus HEK-VC
# [7] = test drug 200 µM, MPP+ 50 μM, 3 min, net uptake HEK-OCT2 minus HEK-VC
# [8] = coadministration of lansoprazole
# [9] = coadministration with pantoprazole
# T1 sequence (O15244 whole entry): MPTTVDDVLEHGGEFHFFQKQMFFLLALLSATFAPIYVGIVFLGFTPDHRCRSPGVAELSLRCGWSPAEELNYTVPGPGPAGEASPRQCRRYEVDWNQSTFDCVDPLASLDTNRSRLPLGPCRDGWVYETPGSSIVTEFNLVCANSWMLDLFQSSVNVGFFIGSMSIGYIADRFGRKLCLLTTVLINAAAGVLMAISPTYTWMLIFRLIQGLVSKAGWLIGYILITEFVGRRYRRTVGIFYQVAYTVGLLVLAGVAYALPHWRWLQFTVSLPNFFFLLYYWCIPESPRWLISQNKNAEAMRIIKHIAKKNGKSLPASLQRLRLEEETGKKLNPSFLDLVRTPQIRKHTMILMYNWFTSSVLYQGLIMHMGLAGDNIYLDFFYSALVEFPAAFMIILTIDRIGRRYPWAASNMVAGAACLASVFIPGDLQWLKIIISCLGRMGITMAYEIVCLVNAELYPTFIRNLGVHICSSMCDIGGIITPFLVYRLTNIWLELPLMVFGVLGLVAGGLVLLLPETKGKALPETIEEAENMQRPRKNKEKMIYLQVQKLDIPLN
smiles,measurement,setting,value
CN(C)CCCN1c2ccccc2CCc2ccc(Cl)cc21 [Clomipramine],% Inhibition of OCT2-dependent MF uptake at 200 µM (mean ± SEM),"OCT2 [1]; human, pH 7.3",99.5 ± 3.7
same,% Inhibition of OCT2-dependent MPP+ uptake at 20 µM (mean ± SEM),OCT2 [2]; [6],90.3 ± 1.5%
same,% Inhibition of OCT2-dependent MPP+ uptake at 200 µM (mean ± SEM),OCT2 [2]; [7],98.8 ± 3.0%
same,Inhibition of OCT2-mediated ASP+ uptake,OCT2 [3],more than 50%
Cc1c(OCC(F)(F)F)ccnc1C[S+]([O-])c1nc2ccccc2[nH]1 (centres unmarked) [Lansoprazole],"Cmax,u",[4],1200 nM
same,Cmax,[4],6000 nM
same,% Inhibition of OCT2-dependent MF uptake at 20 µM (mean ± SEM),"OCT2 [1]; human, pH 7.3",87.7 ± 1.6
same,% Inhibition of OCT2-dependent MF uptake at 200 µM (mean ± SEM),"OCT2 [1]; human, pH 7.3",103.0 ± 2.7
same,IC50,"OCT2 [1]; human, pH 7.3",3280 nM
same,"IC50 values, OCT2-mediated metformin transport (in words)",OCT2 [1],low micromolar range
same,Decrease of metformin renal clearance,[5]; [8],13%
same,Increase of AUC of metformin,[5]; [8],17%
same,Increase of Cmax of metformin,[5]; [8],15%
same,% Inhibition of OCT2-dependent MPP+ uptake at 20 µM (mean ± SEM),OCT2 [2]; [6],22.1 ± 5.3%
same,% Inhibition of OCT2-dependent MPP+ uptake at 200 µM (mean ± SEM),OCT2 [2]; [7],90.1 ± 1.8%
COc1ccc2[nH]c([S+]([O-])Cc3ncc(C)c(OC)c3C)nc2c1 (centres unmarked) [Omeprazole],% Inhibition of OCT2-dependent MF uptake at 200 µM (mean ± SEM),"OCT2 [1]; human, pH 7.3",107.4 ± 4.3
same,"IC50 values, OCT2-mediated metformin transport (in words)",OCT2 [1],low micromolar range
same,% Inhibition of OCT2-dependent MPP+ uptake at 20 µM (mean ± SEM),OCT2 [2]; [6],56.0 ± 4.0%
same,% Inhibition of OCT2-dependent MPP+ uptake at 20 µM (mean ± SEM),"OCT2 [2]; test drug 20 µM, MPP+ 50 μM, 3 min, net uptake HEK-OCT2 minus HEK-VC, listed as omeprazole",more than 50%
same,% Inhibition of OCT2-dependent MPP+ uptake at 200 µM (mean ± SEM),OCT2 [2]; [7],93.0 ± 0.9%
same,Inhibition of OCT2-mediated ASP+ uptake,OCT2 [3],more than 50%
COc1ccnc(C[S+]([O-])c2nc3ccc(OC(F)F)cc3[nH]2)c1OC (centres unmarked) [Pantoprazole],"Cmax,u",[4],230 nM
same,Cmax,[4],11400 nM
same,% Inhibition of OCT2-dependent MF uptake at 200 µM (mean ± SEM),"OCT2 [1]; human, pH 7.3",98.9 ± 0.6
same,IC50,"OCT2 [1]; human, pH 7.3",560 nM
same,AUC for metformin greater following coadministration,[5]; [9],15%
same,Cmax for metformin greater following coadministration,[5]; [9],15%
same,% Inhibition of OCT2-dependent MPP+ uptake at 200 µM (mean ± SEM),"OCT2 [2]; human, pH 7.3",101.7 ± 4.4
N[C@@H](CC(=O)N1CCn2c(nnc2C(F)(F)F)C1)Cc1cc(F)c(F)cc1F [Sitagliptin],"Cmax,u",[4],1500 nM
same,Cmax,[4],2300 nM
same,% Inhibition of OCT2-dependent MF uptake at 20 µM (mean ± SEM),"OCT2 [1]; human, pH 7.3",85.9 ± 1.1
same,% Inhibition of OCT2-dependent MF uptake at 200 µM (mean ± SEM),"OCT2 [1]; human, pH 7.3",97.5 ± 0.1
same,IC50,"OCT2 [1]; human, pH 7.3",7410 nM
same,"IC50 values, OCT2-mediated metformin transport (in words)",OCT2 [1],low micromolar range
same,Effect on steady-state pharmacokinetics of either agent,"[5]; co-administration of sitagliptin and metformin, patients with type 2 diabetes",did not meaningfully alter
same,% Inhibition of OCT2-dependent MPP+ uptake at 20 µM (mean ± SEM),OCT2 [2]; [6],-8.2 ± 7.8%
same,% Inhibition of OCT2-dependent MPP+ uptake at 200 µM (mean ± SEM),OCT2 [2]; [7],22.7 ± 6.0%
CC(=O)S[C@@H]1CC2=CC(=O)CC[C@]2(C)[C@H]2CC[C@@]3(C)[C@@H](CC[C@@]34CCC(=O)O4)[C@H]12 [Spironolactone],"Cmax,u",[4],20 nM
same,Cmax,[4],1200 nM
same,"Cmax,u / IC50",OCT2 [1],0.02
same,% Inhibition of OCT2-dependent MF uptake at 200 µM (mean ± SEM),"OCT2 [1]; human, pH 7.3",98.4 ± 1.0
same,IC50,"OCT2 [1]; human, pH 7.3",1290 nM
same,% Inhibition of OCT2-dependent MPP+ uptake at 20 µM (mean ± SEM),OCT2 [2]; [6],33.5 ± 4.7%
same,% Inhibition of OCT2-dependent MPP+ uptake at 200 µM (mean ± SEM),OCT2 [2]; [7],95.0 ± 0.5%
CCCc1nc2c(C)cc(-c3nc4ccccc4n3C)cc2n1Cc1ccc(-c2ccccc2C(=O)O)cc1 [Telmisartan],% Inhibition of OCT2-dependent MF uptake at 200 µM (mean ± SEM),"OCT2 [1]; human, pH 7.3",99.2 ± 0.2
same,% Inhibition of OCT2-dependent MPP+ uptake at 200 µM (mean ± SEM),"OCT2 [2]; human, pH 7.3",93.3 ± 2.8
same,Inhibition of OCT2-mediated ASP+ uptake,OCT2 [3],more than 50%
Cn1c(=O)c2[nH]cnc2n(C)c1=O [Theophylline],% Inhibition of OCT2-dependent MF uptake at 20 µM (mean ± SEM),"OCT2 [1]; human, pH 7.3",-21.5 ± 13.0
same,% Inhibition of OCT2-dependent MF uptake at 200 µM (mean ± SEM),"OCT2 [1]; human, pH 7.3",-36.6 ± 10.9
same,% Inhibition of OCT2-dependent MPP+ uptake at 20 µM (mean ± SEM),OCT2 [2]; [6],-12.9 ± 5.7%
same,% Inhibition of OCT2-dependent MPP+ uptake at 200 µM (mean ± SEM),OCT2 [2]; [7],-16.7 ± 6.8%
Cc1cccc(Nc2ccncc2S(=O)(=O)NC(=O)NC(C)C)c1 [Torasemide],% Inhibition of OCT2-dependent MF uptake at 20 µM (mean ± SEM),"OCT2 [1]; human, pH 7.3",-33.2 ± 5.0
same,% Inhibition of OCT2-dependent MF uptake at 200 µM (mean ± SEM),"OCT2 [1]; human, pH 7.3",-19.5 ± 0.8
same,% Inhibition of OCT2-dependent MPP+ uptake at 20 µM (mean ± SEM),OCT2 [2]; [6],-11.4 ± 2.3%
same,% Inhibition of OCT2-dependent MPP+ uptake at 200 µM (mean ± SEM),OCT2 [2]; [7],-40.3 ± 5.0%
COc1cccc(C2(O)CCCCC2CN(C)C)c1 (centres unmarked) [Tramadol],% Inhibition of OCT2-dependent MF uptake at 20 µM (mean ± SEM),"OCT2 [1]; human, pH 7.3",47.1 ± 9.5
same,% Inhibition of OCT2-dependent MF uptake at 200 µM (mean ± SEM),"OCT2 [1]; human, pH 7.3",103.7 ± 9.2
same,% Inhibition of OCT2-dependent MPP+ uptake at 20 µM (mean ± SEM),"OCT2 [2]; human, pH 7.3",5.9 ± 7.9
same,% Inhibition of OCT2-dependent MPP+ uptake at 200 µM (mean ± SEM),"OCT2 [2]; human, pH 7.3",31.4 ± 1.4
Nc1nc(N)c2nc(-c3ccccc3)c(N)nc2n1 [Triamterene],% Inhibition of OCT2-dependent MF uptake at 20 µM (mean ± SEM),"OCT2 [1]; human, pH 7.3",48.0 ± 5.1
same,% Inhibition of OCT2-dependent MF uptake at 200 µM (mean ± SEM),"OCT2 [1]; human, pH 7.3",92.0 ± 2.1
same,% Inhibition of OCT2-dependent MPP+ uptake at 20 µM (mean ± SEM),OCT2 [2]; [6],6.6 ± 11.2%
same,% Inhibition of OCT2-dependent MPP+ uptake at 200 µM (mean ± SEM),OCT2 [2]; [7],17.5 ± 3.8%
O=C(O[C@H]1C[C@H]2CC[C@@H](C1)[N+]21CCCC1)C(O)(c1ccccc1)c1ccccc1 [Trospium chloride],"Cmax,u",[4],10 nM
same,Cmax,[4],30 nM
same,% Inhibition of OCT2-dependent MF uptake at 200 µM (mean ± SEM),"OCT2 [1]; human, pH 7.3",98.8 ± 0.4
same,IC50,"OCT2 [1]; human, pH 7.3",70 nM
same,Effect on metformin renal clearance and steady-state pharmacokinetics,"[5]; trospium chloride coadministration, healthy volunteers",did not alter
same,% Inhibition of OCT2-dependent MPP+ uptake at 20 µM (mean ± SEM),OCT2 [2]; [6],83.2 ± 2.2%
same,% Inhibition of OCT2-dependent MPP+ uptake at 200 µM (mean ± SEM),OCT2 [2]; [7],96.7 ± 0.7%
CCCC(CCC)C(=O)O [Valproic acid],% Inhibition of OCT2-dependent MF uptake at 20 µM (mean ± SEM),"OCT2 [1]; human, pH 7.3",18.5 ± 7.6
same,% Inhibition of OCT2-dependent MF uptake at 200 µM (mean ± SEM),"OCT2 [1]; human, pH 7.3",27.7 ± 1.9
same,% Inhibition of OCT2-dependent MPP+ uptake at 20 µM (mean ± SEM),OCT2 [2]; [6],-17.3 ± 9.5%
same,% Inhibition of OCT2-dependent MPP+ uptake at 200 µM (mean ± SEM),OCT2 [2]; [7],-29.0 ± 9.2%
CCCCC(=O)N(Cc1ccc(-c2ccccc2-c2nnn[nH]2)cc1)[C@H](C(=O)O)C(C)C [Valsartan],"inhibition at 3 min, 20 µM","OCT2 [1]; human, pH 7.3",-41.7 ± 1.8%
same,"inhibition at 3 min, 200 µM","OCT2 [1]; human, pH 7.3",-12.9 ± 3.6%
same,"inhibition at 3 min, 20 µM","OCT2 [2]; human, pH 7.3",-77.2 ± 6%
same,"inhibition at 3 min, 200 µM","OCT2 [2]; human, pH 7.3",-82.1 ± 9.9%
COc1ccc(C(CN(C)C)C2(O)CCCCC2)cc1 (centres unmarked) [Venlafaxine],% Inhibition of OCT2-dependent MF uptake at 20 µM (mean ± SEM),"OCT2 [1]; human, pH 7.3",17.6 ± 3.2
same,% Inhibition of OCT2-dependent MF uptake at 200 µM (mean ± SEM),"OCT2 [1]; human, pH 7.3",72.2 ± 2.5
same,% Inhibition of OCT2-dependent MPP+ uptake at 20 µM (mean ± SEM),OCT2 [2]; [6],-43.3 ± 13.0%
same,% Inhibition of OCT2-dependent MPP+ uptake at 200 µM (mean ± SEM),OCT2 [2]; [7],-54.3 ± 13.1%
Cc1cccc(C)c1NC(=O)c1cc(S(N)(=O)=O)c(Cl)cc1O [Xipamide],% Inhibition of OCT2-dependent MF uptake at 20 µM (mean ± SEM),"OCT2 [1]; human, pH 7.3",-22.3 ± 9.7
same,% Inhibition of OCT2-dependent MF uptake at 200 µM (mean ± SEM),"OCT2 [1]; human, pH 7.3",9.4 ± 9.2
same,% Inhibition of OCT2-dependent MPP+ uptake at 20 µM (mean ± SEM),OCT2 [2]; [6],10.5 ± 3.7%
same,% Inhibition of OCT2-dependent MPP+ uptake at 200 µM (mean ± SEM),OCT2 [2]; [7],6.6 ± 9.3%
Cc1ccc(-c2nc3ccc(C)cn3c2CC(=O)N(C)C)cc1 [Zolpidem],"Cmax,u",[4],50 nM
same,Cmax,[4],650 nM
same,% Inhibition of OCT2-dependent MF uptake at 200 µM (mean ± SEM),"OCT2 [1]; human, pH 7.3",99.1 ± 0.5
same,IC50,"OCT2 [1]; human, pH 7.3",150 nM
same,% Inhibition of OCT2-dependent MPP+ uptake at 20 µM (mean ± SEM),"OCT2 [2]; human, pH 7.3",36.5 ± 4.3
same,% Inhibition of OCT2-dependent MPP+ uptake at 200 µM (mean ± SEM),"OCT2 [2]; human, pH 7.3",90.7 ± 8.2
